Experimental data: PubChem BioAssay (NCI)
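The compound was tested at five concentrations on cells cultured in 96-well plates, with a 48-hour exposure period. Definition used: TGI = concentration required for complete inhibition of growth.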

What was measured:
Assay in all cases: NCI tumour cell line growth inhibition, 48 h
M14 melanoma = tested on: M14 melanoma
OVCAR-5 ovarian = tested on: OVCAR-5 ovarian
LOX IMVI melanoma = tested on: LOX IMVI melanoma
NCI-H522 lung = tested on: NCI-H522 lung
MOLT-4 leukemia = tested on: MOLT-4 leukemia
NCI/ADR-RES ovarian = tested on: NCI/ADR-RES ovarian
T-47D breast = tested on: T-47D breast
DU-145 prostate = tested on: DU-145 prostate
RXF 393 renal = tested on: RXF 393 renal
HCT-15 colon = tested on: HCT-15 colon
HS 578T breast = tested on: HS 578T breast
NCI-H23 lung = tested on: NCI-H23 lung
COLO 205 colon = tested on: COLO 205 colon
CAKI-1 renal = tested on: CAKI-1 renal
SF-268 CNS = tested on: SF-268 CNS
EKVX NSCLC = tested on: EKVX NSCLC
SK-MEL-5 melanoma = tested on: SK-MEL-5 melanoma
TK-10 renal = tested on: TK-10 renal
SW-620 colon = tested on: SW-620 colon
UACC-62 melanoma = tested on: UACC-62 melanoma
IGROV1 ovarian = tested on: IGROV1 ovarian
SK-MEL-28 melanoma = tested on: SK-MEL-28 melanoma
OVCAR-4 ovarian = tested on: OVCAR-4 ovarian
U251 CNS = tested on: U251 CNS
ACHN renal = tested on: ACHN renal
SNB-75 CNS = tested on: SNB-75 CNS
SF-539 CNS = tested on: SF-539 CNS
MDA-N = tested on: MDA-N
CCRF-CEM leukemia = tested on: CCRF-CEM leukemia
SK-MEL-2 melanoma = tested on: SK-MEL-2 melanoma
KM12 colon = tested on: KM12 colon
HCC-2998 colon = tested on: HCC-2998 colon
A498 renal = tested on: A498 renal
MALME-3M melanoma = tested on: MALME-3M melanoma
MDA-MB-231 breast = tested on: MDA-MB-231 breast
HOP-92 NSCLC = tested on: HOP-92 NSCLC
SN12C renal = tested on: SN12C renal
OVCAR-3 ovarian = tested on: OVCAR-3 ovarian
K-562 leukemia = tested on: K-562 leukemia
HL-60(TB) leukemia = tested on: HL-60(TB) leukemia
HCT-116 colon = tested on: HCT-116 colon
BT-549 breast = tested on: BT-549 breast
786-0 renal = tested on: 786-0 renal
MDA-MB-435 = tested on: MDA-MB-435
SF-295 CNS = tested on: SF-295 CNS
UO-31 renal = tested on: UO-31 renal
HOP-62 NSCLC = tested on: HOP-62 NSCLC
MCF7 breast = tested on: MCF7 breast
SR leukemia = tested on: SR leukemia
PC-3 prostate = tested on: PC-3 prostate
OVCAR-8 ovarian = tested on: OVCAR-8 ovarian
HT29 colon = tested on: HT29 colon
NCI-H460 lung = tested on: NCI-H460 lung
UACC-257 melanoma = tested on: UACC-257 melanoma
NCI-H226 lung = tested on: NCI-H226 lung
A549 NSCLC = tested on: A549 NSCLC
SNB-19 CNS = tested on: SNB-19 CNS
RPMI-8226 leukemia = tested on: RPMI-8226 leukemia
SK-OV-3 ovarian = tested on: SK-OV-3 ovarian

COc1cc(C)c(C2NC(=O)c3ccccc3N2)cc1C (stereo unspecified) gave a TGI (M14 melanoma) of 8.54 µM, a TGI (OVCAR-5 ovarian) greater than 24.8 µM and a TGI (LOX IMVI melanoma) of 97.9 µM. It also gave a TGI (NCI-H522 lung) of 0.713 µM, a TGI (MOLT-4 leukemia) of 35.8 µM and a TGI (NCI/ADR-RES ovarian) of 0.679 µM. The TGI (T-47D breast) was greater than 100 µM, the TGI (DU-145 prostate) was 11.6 µM and the TGI (RXF 393 renal) was 8.61 µM. For the same compound, the TGI (HCT-15 colon) was 10 µM, the TGI (HS 578T breast) was 0.908 µM and the TGI (NCI-H23 lung) was greater than 70.2 µM. For the same compound, the TGI (COLO 205 colon) was 4.64 µM, the TGI (CAKI-1 renal) was 16.2 µM and the TGI (SF-268 CNS) was greater than 100 µM. For the same compound, the TGI (EKVX NSCLC) was greater than 100 µM, the TGI (SK-MEL-5 melanoma) was 5.49 µM and the TGI (TK-10 renal) was greater than 100 µM. The TGI (SW-620 colon) was greater than 100 µM, the TGI (UACC-62 melanoma) was greater than 100 µM and the TGI (IGROV1 ovarian) was greater than 100 µM. It also gave a TGI (SK-MEL-28 melanoma) greater than 100 µM, a TGI (OVCAR-4 ovarian) greater than 82.9 µM and a TGI (U251 CNS) of 13.9 µM. For the same compound, the TGI (ACHN renal) was greater than 95.4 µM, the TGI (SNB-75 CNS) was 0.496 µM and the TGI (SF-539 CNS) was 0.734 µM. It also gave a TGI (MDA-N) of 0.128 µM, a TGI (CCRF-CEM leukemia) of 18.1 µM and a TGI (SK-MEL-2 melanoma) of 0.924 µM. It also gave a TGI (KM12 colon) greater than 100 µM, a TGI (HCC-2998 colon) of 25.9 µM and a TGI (A498 renal) of 4.77 µM. For the same compound, the TGI (MALME-3M melanoma) was greater than 100 µM, the TGI (MDA-MB-231 breast) was greater than 85.7 µM and the TGI (HOP-92 NSCLC) was greater than 86.5 µM. It also gave a TGI (SN12C renal) greater than 100 µM, a TGI (OVCAR-3 ovarian) of 0.518 µM and a TGI (K-562 leukemia) greater than 52.2 µM. It also gave a TGI (HL-60(TB) leukemia) of 0.396 µM, a TGI (HCT-116 colon) of 43.1 µM and a TGI (BT-549 breast) of 71.4 µM. For the same compound, the TGI (786-0 renal) was greater than 100 µM, the TGI (MDA-MB-435) was 0.209 µM and the TGI (SF-295 CNS) was 22.4 µM. For the same compound, the TGI (UO-31 renal) was greater than 100 µM, the TGI (HOP-62 NSCLC) was greater than 97.1 µM and the TGI (MCF7 breast) was greater than 89 µM. It also gave a TGI (SR leukemia) greater than 8.5 µM, a TGI (PC-3 prostate) of 15.6 µM and a TGI (OVCAR-8 ovarian) greater than 66.5 µM. The TGI (HT29 colon) was 13.6 µM, the TGI (NCI-H460 lung) was 26.5 µM and the TGI (UACC-257 melanoma) was greater than 100 µM. For the same compound, the TGI (NCI-H226 lung) was 16.5 µM and the TGI (A549 NSCLC) was greater than 100 µM.
With CN(C)Cc1cc(C(=O)/C=C/c2ccccc2)cc(CN(C)C)c1O the TGI (M14 melanoma) was 63.1 µM, the TGI (OVCAR-5 ovarian) was greater than 100 µM and the TGI (LOX IMVI melanoma) was 17.7 µM. It also gave a TGI (NCI-H522 lung) of 40.8 µM, a TGI (MOLT-4 leukemia) of 63.7 µM and a TGI (NCI/ADR-RES ovarian) greater than 100 µM. The TGI (T-47D breast) was greater than 100 µM, the TGI (DU-145 prostate) was greater than 100 µM and the TGI (RXF 393 renal) was 71.8 µM. For the same compound, the TGI (HCT-15 colon) was greater than 100 µM, the TGI (HS 578T breast) was greater than 100 µM and the TGI (NCI-H23 lung) was greater than 100 µM. It also gave a TGI (COLO 205 colon) of 31.9 µM, a TGI (CAKI-1 renal) of 61.8 µM and a TGI (SF-268 CNS) greater than 100 µM. It also gave a TGI (EKVX NSCLC) greater than 100 µM, a TGI (SNB-19 CNS) greater than 100 µM and a TGI (SK-MEL-5 melanoma) of 38.4 µM. For the same compound, the TGI (TK-10 renal) was greater than 100 µM, the TGI (SW-620 colon) was 45.1 µM and the TGI (IGROV1 ovarian) was greater than 100 µM. For the same compound, the TGI (RPMI-8226 leukemia) was 54.3 µM, the TGI (SK-MEL-28 melanoma) was greater than 100 µM and the TGI (OVCAR-4 ovarian) was greater than 100 µM. For the same compound, the TGI (U251 CNS) was greater than 100 µM, the TGI (ACHN renal) was greater than 100 µM and the TGI (SNB-75 CNS) was greater than 100 µM. The TGI (SF-539 CNS) was 46.5 µM, the TGI (MDA-N) was 35.7 µM and the TGI (CCRF-CEM leukemia) was greater than 100 µM. The TGI (KM12 colon) was 33.8 µM, the TGI (HCC-2998 colon) was 64.8 µM and the TGI (A498 renal) was 78.6 µM. The TGI (MALME-3M melanoma) was 44.9 µM, the TGI (MDA-MB-231 breast) was 58.1 µM and the TGI (HOP-92 NSCLC) was 67.4 µM. For the same compound, the TGI (SN12C renal) was 30.9 µM, the TGI (OVCAR-3 ovarian) was 99.1 µM and the TGI (K-562 leukemia) was 36.8 µM. For the same compound, the TGI (HL-60(TB) leukemia) was 42.3 µM, the TGI (HCT-116 colon) was 87.8 µM and the TGI (BT-549 breast) was 42.7 µM. For the same compound, the TGI (786-0 renal) was greater than 100 µM, the TGI (MDA-MB-435) was greater than 100 µM and the TGI (SF-295 CNS) was 39.6 µM. The TGI (UO-31 renal) was 40.7 µM, the TGI (HOP-62 NSCLC) was greater than 100 µM and the TGI (MCF7 breast) was greater than 100 µM. The TGI (SR leukemia) was 59.1 µM, the TGI (PC-3 prostate) was 36.9 µM and the TGI (OVCAR-8 ovarian) was 99.8 µM. It also gave a TGI (HT29 colon) of 41.4 µM, a TGI (NCI-H460 lung) of 44.8 µM and a TGI (UACC-257 melanoma) of 27.9 µM. For the same compound, the TGI (NCI-H226 lung) was 78.5 µM and the TGI (A549 NSCLC) was 68.9 µM.
C=C1C(=O)OC2CC(C)C3CC(O)OC(OCC)C3(C)CC12 (stereo unspecified) was tested, and the TGI (SK-OV-3 ovarian) was 87.2 µM, the TGI (M14 melanoma) was 28.5 µM and the TGI (OVCAR-5 ovarian) was 54.4 µM. For the same compound, the TGI (LOX IMVI melanoma) was 17.4 µM, the TGI (NCI-H522 lung) was 18.8 µM and the TGI (MOLT-4 leukemia) was 56.4 µM. For the same compound, the TGI (NCI/ADR-RES ovarian) was 39.2 µM, the TGI (T-47D breast) was 33.1 µM and the TGI (DU-145 prostate) was greater than 100 µM. The TGI (RXF 393 renal) was 28.3 µM, the TGI (HCT-15 colon) was 21.3 µM and the TGI (HS 578T breast) was 72.8 µM. The TGI (NCI-H23 lung) was 30.9 µM, the TGI (COLO 205 colon) was 33.5 µM and the TGI (CAKI-1 renal) was 42.9 µM. For the same compound, the TGI (SF-268 CNS) was 34 µM, the TGI (EKVX NSCLC) was greater than 62.2 µM and the TGI (SNB-19 CNS) was greater than 75.5 µM. It also gave a TGI (SK-MEL-5 melanoma) of 31.7 µM, a TGI (TK-10 renal) of 45.2 µM and a TGI (SW-620 colon) of 19 µM. The TGI (UACC-62 melanoma) was greater than 52.1 µM, the TGI (IGROV1 ovarian) was 48.1 µM and the TGI (RPMI-8226 leukemia) was 51 µM. The TGI (SK-MEL-28 melanoma) was 27.5 µM, the TGI (OVCAR-4 ovarian) was 50.3 µM and the TGI (U251 CNS) was 33.8 µM. It also gave a TGI (ACHN renal) of 39.5 µM, a TGI (SNB-75 CNS) of 50.8 µM and a TGI (SF-539 CNS) of 35.4 µM. The TGI (MDA-N) was 35.7 µM, the TGI (CCRF-CEM leukemia) was greater than 100 µM and the TGI (SK-MEL-2 melanoma) was 29.8 µM. The TGI (KM12 colon) was 42.6 µM, the TGI (HCC-2998 colon) was 30.6 µM and the TGI (A498 renal) was greater than 69.1 µM. The TGI (MALME-3M melanoma) was 23.3 µM, the TGI (MDA-MB-231 breast) was 34.8 µM and the TGI (HOP-92 NSCLC) was 35.1 µM. For the same compound, the TGI (SN12C renal) was 33.2 µM, the TGI (OVCAR-3 ovarian) was 31.3 µM and the TGI (K-562 leukemia) was greater than 57.4 µM. It also gave a TGI (HL-60(TB) leukemia) greater than 30 µM, a TGI (HCT-116 colon) of 26 µM and a TGI (BT-549 breast) greater than 58.4 µM. The TGI (786-0 renal) was 25.1 µM, the TGI (MDA-MB-435) was 37.6 µM and the TGI (SF-295 CNS) was 90.6 µM. It also gave a TGI (UO-31 renal) of 53.7 µM, a TGI (HOP-62 NSCLC) of 47.6 µM and a TGI (MCF7 breast) of 26.7 µM. The TGI (SR leukemia) was greater than 63.1 µM, the TGI (PC-3 prostate) was 45.9 µM and the TGI (OVCAR-8 ovarian) was 31.4 µM. It also gave a TGI (HT29 colon) of 38.5 µM, a TGI (NCI-H460 lung) of 38.6 µM and a TGI (UACC-257 melanoma) of 31.5 µM. The TGI (NCI-H226 lung) was 63.1 µM and the TGI (A549 NSCLC) was greater than 96.6 µM.
